Assay results published in patent US11771709B2, “ALK protein degradation agent and anti-tumor application thereof” (ShanghaiTech University, priority 2017, dated 2023).

Columns and labels:
SR (NPM-ALK) cells = assay: Growth inhibition IC50 in ALCL SR cells (CCK8/WST, 72 hours); assay type: cell-based; settings: SR cells
[1] = test system: NCI-H3122 (EML4-ALK, V1) cells; assay: Growth inhibition IC50 in lung cancer H3122 cells (Cell Titer Blue / Cell Titer Glo); settings: for IC50: Homo sapiens, NCI-H3122, H3122 cells, CTB (Cell Titer Blue)

IC50 [1] [µM] | SMILES | growth inhibition effect (SR (NPM-ALK) cells) | growth inhibition effect ([1]; H3122 cells)
0.428 | Cc1cc(Nc2ncc(Cl)c(Nc3ccccc3S(=O)(=O)C(C)C)n2)c(OC(C)C)cc1C1CCN(C(=O)CCCCCCC(=O)N[C@H](C(=O)N2C[C@H](O)C[C@H]2C(=O)NCc2ccc(-c3scnc3C)cc2)C(C)(C)C)CC1 [SIAIS074008, (2S,4R)-1-((S)-2-(8-(4-(4-((5-chloro-4-((2-(isopropylsulfonyl)phenyl)amino)pyrimidin-2-yl)amino)-5-isopropoxy-2-methylphenyl)piperidin-1-yl)-8-oxooctanamido)-3,3-dimethylbutanoyl)-4-hydroxy-N-(4-(4-methylthiazol-5-yl)benzyl)pyrrolidine-2-carboxamide] | IC50 at the nano mole range | IC50 at the nano mole range
2.56 | Cc1cc(Nc2ncc(Cl)c(Nc3ccccc3S(=O)(=O)C(C)C)n2)c(OC(C)C)cc1C1CCN(C(=O)CCCCCCCCCC(=O)N[C@H](C(=O)N2C[C@H](O)C[C@H]2C(=O)NCc2ccc(-c3scnc3C)cc2)C(C)(C)C)CC1 [SIAIS074026, (2S,4R)-1-((S)-2-(11-(4-(4-((5-chloro-4-((2-(isopropylsulfonyl)phenyl)amino)pyrimidin-2-yl)amino)-5-isopropoxy-2-methylphenyl)piperidin-1-yl)-11-oxoundecanamido)-3,3-dimethylbutanoyl)-4-hydroxy-N-(4-(4-methylthiazol-5-yl)benzyl)pyrrolidine-2-carboxamide] |  | 
0.156 | Cc1cc(Nc2ncc(Cl)c(Nc3ccccc3S(=O)(=O)C(C)C)n2)c(OC(C)C)cc1C1CCN(C(=O)CCCCCNc2cccc3c2C(=O)N(C2CCC(=O)NC2=O)C3=O)CC1 (centres unmarked) [SIAIS151043, 4-((6-(4-(4-((5-chloro-4-((2-(isopropylsulfonyl)phenyl)amino)pyrimidin-2-yl)amino)-5-isopropoxy-2-methylphenyl)piperidin-1-yl)-6-oxohexyl)amino)-2-(2,6-dioxopiperidin-3-yl)isoindoline-1,3-dione] |  | 
0.332 | Cc1cc(Nc2ncc(Cl)c(Nc3ccccc3S(=O)(=O)C(C)C)n2)c(OC(C)C)cc1C1CCN(C(=O)CCOCCOCCOCCOCCOCCC(=O)N[C@H](C(=O)N2C[C@H](O)C[C@H]2C(=O)NCc2ccc(-c3scnc3C)cc2)C(C)(C)C)CC1 [SIAIS151041, (2S,4R)-1-((S)-2-(tert-butyl)-22-(4-(4-((5-chloro-4-((2-(isopropylsulfonyl)phenyl)amino)pyrimidin-2-yl)amino)-5-isopropoxy-2-methylphenyl)piperidin-1-yl)-4,22-dioxo-7,10,13,16,19-pentaoxa-3-azadocosanoyl)-4-hydroxy-N-(4-(4-methylthiazol-5-yl)benzyl)pyrrolidine-2-carboxamide] |  | 
0.141 | Cc1cc(Nc2ncc(Cl)c(Nc3ccccc3S(=O)(=O)C(C)C)n2)c(OC(C)C)cc1C1CCN(C(=O)CCOCCOCCOCCOCCC(=O)N[C@H](C(=O)N2C[C@H](O)C[C@H]2C(=O)NCc2ccc(-c3scnc3C)cc2)C(C)(C)C)CC1 [SIAIS151040, (2S,4R)-1-((S)-2-(tert-butyl)-19-(4-(4-((5-chloro-4-((2-(isopropylsulfonyl)phenyl)amino)pyrimidin-2-yl)amino)-5-isopropoxy-2-methylphenyl)piperidin-1-yl)-4,19-dioxo-7,10,13,16-tetraoxa-3-azanonadecanoyl)-4-hydroxy-N-(4-(4-methylthiazol-5-yl)benzyl)pyrrolidine-2-carboxamide] |  | 
0.393 | Cc1cc(Nc2ncc(Cl)c(Nc3ccccc3S(=O)(=O)C(C)C)n2)c(OC(C)C)cc1C1CCN(C(=O)CCOCCOCCC(=O)N[C@H](C(=O)N2C[C@H](O)C[C@H]2C(=O)NCc2ccc(-c3scnc3C)cc2)C(C)(C)C)CC1 [SIAIS151038, (2S,4R)-1-((S)-2-(3-(2-(3-(4-(4-((5-chloro-4-((2-(isopropylsulfonyl)phenyl)amino)pyrimidin-2-yl)amino)-5-isopropoxy-2-methylphenyl)piperidin-1-yl)-3-oxopropoxy)ethoxy)propanamido)-3,3-dimethylbutanoyl)-4-hydroxy-N-(4-(4-methylthiazol-5-yl)benzyl)pyrrolidine-2-carboxamide] |  | 
